Measured values from ChEMBL document CHEMBL1201862, “PubChem BioAssay data set” (2004).
Active and inactive are the calls of the source.

Experiments:
[1] = target: Beta-lactamase (Salmonella choleraesuis (strain SC-B67), UniProt Q5J463); test: Epi-absorbance-based counterscreen for selective VIM-2 inhibitors: dose response biochemical high throughput screening assay to identify inhibitors of TEM-1 serine-beta-lactamase.
[2] = target: T1, Beta-lactamase (Pseudomonas aeruginosa, UniProt Q79MP6); test: inhibition of IMP-1 beta-lactamase activity – biochemical, epi-absorbance, selectivity assay for VIM-2 inhibitor project, dose response (AID 1920)
T1 sequence (Q79MP6 whole entry): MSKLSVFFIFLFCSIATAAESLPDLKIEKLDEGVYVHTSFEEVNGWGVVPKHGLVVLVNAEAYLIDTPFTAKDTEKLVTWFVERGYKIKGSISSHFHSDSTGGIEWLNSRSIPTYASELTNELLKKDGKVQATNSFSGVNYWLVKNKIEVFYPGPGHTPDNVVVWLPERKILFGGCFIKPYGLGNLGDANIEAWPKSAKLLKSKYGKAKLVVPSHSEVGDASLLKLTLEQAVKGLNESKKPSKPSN

[3] = target: T1, Beta-lactamase; test: […] counterscreen for selective VIM-2 inhibitors: dose response biochemical high throughput screening assay to identify inhibitors of IMP-1 metallo-beta-lactamase.
[4] = target: T2, Sentrin-specific protease 1 (Homo sapiens, UniProt Q9P0U3); test: Dose response confirmation of small molecule inhibitors of the catalytic domain of the SUMO protease, SENP1 in a FRET assay.; type: functional; conditions: read-out: IC50_Mean
T2 sequence (Q9P0U3 whole entry, the tested form may be a part): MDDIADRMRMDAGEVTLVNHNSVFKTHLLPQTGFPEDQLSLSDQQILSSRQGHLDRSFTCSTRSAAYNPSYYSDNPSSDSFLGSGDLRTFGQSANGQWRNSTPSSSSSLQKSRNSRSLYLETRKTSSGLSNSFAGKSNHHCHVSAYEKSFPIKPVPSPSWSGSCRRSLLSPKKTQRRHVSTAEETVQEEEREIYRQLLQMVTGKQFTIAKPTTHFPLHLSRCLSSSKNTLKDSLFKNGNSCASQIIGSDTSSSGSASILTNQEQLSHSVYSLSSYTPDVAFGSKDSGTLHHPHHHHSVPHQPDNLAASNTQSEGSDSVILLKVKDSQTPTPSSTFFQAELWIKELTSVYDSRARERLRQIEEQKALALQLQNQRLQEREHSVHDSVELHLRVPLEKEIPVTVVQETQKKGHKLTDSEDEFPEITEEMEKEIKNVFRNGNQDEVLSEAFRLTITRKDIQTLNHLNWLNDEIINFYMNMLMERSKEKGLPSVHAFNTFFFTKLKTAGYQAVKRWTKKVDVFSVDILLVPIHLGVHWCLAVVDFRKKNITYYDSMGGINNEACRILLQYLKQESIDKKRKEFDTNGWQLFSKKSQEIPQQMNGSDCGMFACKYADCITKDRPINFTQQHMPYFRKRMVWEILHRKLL

[5] = target: Large T antigen (Simian virus 40, UniProt P03070); type: functional, Betapolyomavirus macacae;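 note: Confirmatory-stage PubChem screen for compounds that inhibit SV40 T antigen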
Sequence of Large T antigen (P03070 whole entry, the tested form may be a part): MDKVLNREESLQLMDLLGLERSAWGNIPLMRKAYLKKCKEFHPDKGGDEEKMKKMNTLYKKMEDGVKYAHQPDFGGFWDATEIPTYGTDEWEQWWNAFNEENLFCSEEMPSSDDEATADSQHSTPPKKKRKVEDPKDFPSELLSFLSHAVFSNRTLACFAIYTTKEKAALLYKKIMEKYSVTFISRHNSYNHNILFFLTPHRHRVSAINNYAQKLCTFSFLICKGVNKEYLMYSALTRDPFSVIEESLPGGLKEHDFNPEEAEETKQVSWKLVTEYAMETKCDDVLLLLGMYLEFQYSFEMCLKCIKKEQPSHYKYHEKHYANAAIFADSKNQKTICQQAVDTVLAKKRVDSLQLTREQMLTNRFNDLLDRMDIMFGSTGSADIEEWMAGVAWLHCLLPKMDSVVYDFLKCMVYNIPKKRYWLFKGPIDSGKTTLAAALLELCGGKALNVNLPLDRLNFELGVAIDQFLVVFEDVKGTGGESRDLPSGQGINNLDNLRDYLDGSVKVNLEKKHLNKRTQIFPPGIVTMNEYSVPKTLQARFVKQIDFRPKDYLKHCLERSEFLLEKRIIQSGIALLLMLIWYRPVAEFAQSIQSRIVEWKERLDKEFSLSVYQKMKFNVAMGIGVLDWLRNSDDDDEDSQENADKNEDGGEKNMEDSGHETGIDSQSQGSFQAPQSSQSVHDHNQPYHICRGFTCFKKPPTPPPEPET

[6] = target: T2, Sentrin-specific protease 1; test: SENP1 catalytic domain blockers, concentration series – biochemical, kinetic FRET, dose response (AID 651697); type: functional; conditions: read-out: IC50_Mean
[7] = cytotoxicity toward MDA-MB-231 breast cancer cells – cell-based, CellTiter-Glo luminescence, cherry-pick, cytotoxicity control for RAD54 inhibitor project, dose response (AID 651692); type: functional
[8] = target: T3, DNA repair and recombination protein RAD54-like (Homo sapiens, UniProt Q92698); test: RAD54 Holliday junction migration blockers – biochemical, fluorescence, cherry-picked samples, dose series, confirmation (AID 651657); type: functional
T3 sequence (Q92698 whole entry): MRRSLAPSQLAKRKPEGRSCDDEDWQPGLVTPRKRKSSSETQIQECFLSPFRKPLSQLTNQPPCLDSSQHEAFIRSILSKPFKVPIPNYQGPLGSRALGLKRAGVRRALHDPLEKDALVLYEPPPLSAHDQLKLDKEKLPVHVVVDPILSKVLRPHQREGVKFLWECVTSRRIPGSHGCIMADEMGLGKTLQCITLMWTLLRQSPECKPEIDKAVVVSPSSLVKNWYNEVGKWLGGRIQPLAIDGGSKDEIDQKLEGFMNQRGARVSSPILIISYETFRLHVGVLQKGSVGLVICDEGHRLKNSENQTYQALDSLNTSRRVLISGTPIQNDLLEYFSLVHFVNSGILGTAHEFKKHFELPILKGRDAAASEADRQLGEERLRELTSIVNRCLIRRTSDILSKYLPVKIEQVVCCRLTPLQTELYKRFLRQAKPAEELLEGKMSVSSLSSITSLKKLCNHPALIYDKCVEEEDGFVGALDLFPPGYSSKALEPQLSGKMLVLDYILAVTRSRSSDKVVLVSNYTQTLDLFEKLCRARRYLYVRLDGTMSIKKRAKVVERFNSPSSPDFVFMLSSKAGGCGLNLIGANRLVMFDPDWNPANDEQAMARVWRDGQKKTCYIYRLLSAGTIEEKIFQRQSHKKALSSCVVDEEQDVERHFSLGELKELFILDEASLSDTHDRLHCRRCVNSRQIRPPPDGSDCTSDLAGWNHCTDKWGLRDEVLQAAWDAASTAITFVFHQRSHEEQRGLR

[9] = target: Beta-galactosidase (Escherichia coli, UniProt Q8VNN2); test: Dose response counterscreen for EBI2 assay utilizing the enzyme, b-galactosidase.; type: functional
Sequence of Beta-galactosidase (Q8VNN2 whole entry): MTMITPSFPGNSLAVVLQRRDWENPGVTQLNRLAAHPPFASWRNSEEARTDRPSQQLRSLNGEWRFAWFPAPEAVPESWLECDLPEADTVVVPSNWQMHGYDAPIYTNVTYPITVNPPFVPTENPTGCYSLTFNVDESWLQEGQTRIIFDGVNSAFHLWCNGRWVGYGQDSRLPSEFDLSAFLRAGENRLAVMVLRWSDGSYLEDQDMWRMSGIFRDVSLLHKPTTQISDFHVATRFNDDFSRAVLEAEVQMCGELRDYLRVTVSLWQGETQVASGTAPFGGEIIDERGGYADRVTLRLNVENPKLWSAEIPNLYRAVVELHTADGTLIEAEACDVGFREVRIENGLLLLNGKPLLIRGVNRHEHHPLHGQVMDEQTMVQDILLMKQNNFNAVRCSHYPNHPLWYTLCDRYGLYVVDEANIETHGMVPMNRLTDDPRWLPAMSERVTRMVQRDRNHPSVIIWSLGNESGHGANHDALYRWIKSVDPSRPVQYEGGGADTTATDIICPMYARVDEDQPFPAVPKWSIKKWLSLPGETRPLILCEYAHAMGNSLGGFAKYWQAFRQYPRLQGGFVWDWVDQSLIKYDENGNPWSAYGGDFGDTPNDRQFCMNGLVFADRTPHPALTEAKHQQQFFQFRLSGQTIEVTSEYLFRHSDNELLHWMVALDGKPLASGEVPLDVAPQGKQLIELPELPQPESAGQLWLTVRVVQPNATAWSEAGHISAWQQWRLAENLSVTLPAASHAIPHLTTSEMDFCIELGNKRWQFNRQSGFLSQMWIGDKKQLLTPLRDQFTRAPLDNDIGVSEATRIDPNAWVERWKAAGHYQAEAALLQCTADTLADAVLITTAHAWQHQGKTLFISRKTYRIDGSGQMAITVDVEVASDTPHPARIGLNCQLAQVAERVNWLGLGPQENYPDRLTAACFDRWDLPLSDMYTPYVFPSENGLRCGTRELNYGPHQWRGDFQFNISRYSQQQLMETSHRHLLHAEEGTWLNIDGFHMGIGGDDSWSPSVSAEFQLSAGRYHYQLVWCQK

[10] = target: T4, Small ubiquitin-related modifier 2 (Homo sapiens, UniProt P61956); test: disruption of SUMO2 interaction with SIM peptide – biochemical, fluorescence polarization, uHTS hits, selectivity assay for SUMO1 interaction inhibitor project, dose response (AID 624385); type: functional; conditions: read-out: IC50_Mean
T4 sequence (P61956 whole entry): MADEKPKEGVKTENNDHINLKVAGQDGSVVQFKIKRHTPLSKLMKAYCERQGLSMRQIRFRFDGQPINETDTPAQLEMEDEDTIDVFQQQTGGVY

[11] = target: T5, Aminopeptidase N (Plasmodium falciparum FcB1/Columbia, UniProt O96935); test: malaria alanyl aminopeptidase activity blockers – biochemical, fluorogenic H-Leu-NHMec substrate, 1536-well (AID 1445); set-up: species or system Plasmodium falciparum 3D7, 3D7
T5 sequence (O96935 whole entry): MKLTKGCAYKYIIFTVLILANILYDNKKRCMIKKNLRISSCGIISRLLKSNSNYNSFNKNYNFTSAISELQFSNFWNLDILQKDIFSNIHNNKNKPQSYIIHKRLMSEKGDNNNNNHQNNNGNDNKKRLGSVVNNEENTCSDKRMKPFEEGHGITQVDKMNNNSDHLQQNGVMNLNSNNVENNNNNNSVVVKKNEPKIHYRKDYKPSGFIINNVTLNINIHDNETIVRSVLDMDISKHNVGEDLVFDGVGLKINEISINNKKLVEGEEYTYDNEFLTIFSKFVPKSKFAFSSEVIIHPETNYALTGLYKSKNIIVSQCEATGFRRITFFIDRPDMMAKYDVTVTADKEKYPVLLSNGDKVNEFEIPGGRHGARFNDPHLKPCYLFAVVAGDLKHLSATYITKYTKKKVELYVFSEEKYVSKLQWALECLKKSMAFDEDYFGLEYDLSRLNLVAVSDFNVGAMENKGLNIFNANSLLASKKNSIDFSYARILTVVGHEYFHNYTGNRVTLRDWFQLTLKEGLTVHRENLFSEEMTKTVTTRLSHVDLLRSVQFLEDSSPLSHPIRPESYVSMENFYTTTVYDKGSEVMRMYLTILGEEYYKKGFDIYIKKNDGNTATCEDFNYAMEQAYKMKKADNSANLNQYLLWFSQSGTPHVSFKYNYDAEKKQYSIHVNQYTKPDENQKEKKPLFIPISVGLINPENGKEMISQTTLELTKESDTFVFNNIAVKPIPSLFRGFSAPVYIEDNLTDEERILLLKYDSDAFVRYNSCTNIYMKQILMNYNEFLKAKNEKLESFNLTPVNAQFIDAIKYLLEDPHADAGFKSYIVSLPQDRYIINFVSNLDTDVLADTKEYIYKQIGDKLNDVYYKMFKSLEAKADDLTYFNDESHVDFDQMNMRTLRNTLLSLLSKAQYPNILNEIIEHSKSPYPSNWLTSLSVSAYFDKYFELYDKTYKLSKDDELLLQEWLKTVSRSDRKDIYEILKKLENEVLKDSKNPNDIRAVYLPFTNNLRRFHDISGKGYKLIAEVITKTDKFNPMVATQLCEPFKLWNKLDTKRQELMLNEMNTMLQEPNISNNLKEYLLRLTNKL

[12] = target: T6, Small ubiquitin-related modifier 1 (Homo sapiens, UniProt P63165); test: SUMO1 protein interaction blockers, potency – biochemical, fluorescence polarization, uHTS hits, dose response (AID 624382); type: functional; conditions: read-out: IC50_Mean
T6 sequence (P63165 whole entry): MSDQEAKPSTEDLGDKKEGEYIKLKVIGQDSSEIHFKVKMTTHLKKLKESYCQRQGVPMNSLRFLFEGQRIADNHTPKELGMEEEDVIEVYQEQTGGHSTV

[13] = target: T6, Small ubiquitin-related modifier 1; test: SUMO1 protein-protein binding blockers, potency – biochemical, FRET, dose response (AID 624383); type: functional; conditions: read-out: IC50_Mean
[14] = target: T4, Small ubiquitin-related modifier 2; test: SUMO2 binding disruption by SUMO1 hits – biochemical, FRET, human SUMO2, uHTS hits, selectivity assay for SUMO1 interaction inhibitor project, dose response (AID 624384); type: functional; conditions: read-out: IC50_Mean
[15] = target: T7, Low molecular weight phosphotyrosine protein phosphatase (Homo sapiens, UniProt P24666); type: functional; conditions: read-out: IC50_Mean
T7 sequence (P24666 whole entry): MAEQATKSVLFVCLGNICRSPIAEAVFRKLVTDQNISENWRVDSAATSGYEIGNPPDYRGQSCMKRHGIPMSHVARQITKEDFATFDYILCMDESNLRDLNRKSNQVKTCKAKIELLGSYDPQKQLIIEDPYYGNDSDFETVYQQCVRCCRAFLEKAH

[16] = target: T7, Low molecular weight phosphotyrosine protein phosphatase; type: functional; conditions: read-out: IC50_Mean; remark: listed apart in the source
[17] = target: T8, Carboxy-terminal domain RNA polymerase II polypeptide A small phosphatase 1 (Homo sapiens, UniProt Q9GZU7); test: CTDSP1 inhibitors, concentration-response, biochemical, absorbance readout, ultra-high-throughput screen actives (AID 540297); type: functional
T8 sequence (Q9GZU7 whole entry): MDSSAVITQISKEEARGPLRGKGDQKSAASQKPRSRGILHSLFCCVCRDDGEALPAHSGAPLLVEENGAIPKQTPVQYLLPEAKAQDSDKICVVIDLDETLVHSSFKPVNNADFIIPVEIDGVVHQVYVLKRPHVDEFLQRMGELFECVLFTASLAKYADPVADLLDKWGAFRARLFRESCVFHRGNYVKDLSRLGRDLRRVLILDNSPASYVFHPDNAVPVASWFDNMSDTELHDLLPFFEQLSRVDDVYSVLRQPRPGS

[18] = mouse fibroblast viability loss – cell-based, cherry-pick samples, set 2, cytotoxicity control for T. cruzi growth inhibitor project, dose response (AID 651817); type: functional; conditions: NIH3T3
[19] = intracellular Trypanosoma cruzi inhibitors in host cells – cell-based, plate reader, cherry-pick samples, set 3, dose response (AID 651818); type: functional;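 note: compounds incubated with infected cells for about four days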
[20] = test system: A549; test: viability loss in A549 cells – cell-based, plate reader, cherry-pick samples, cytotoxicity control, dose response (AID 687028); type: functional; conditions: Homo sapiens
[21] = target: Fructose-bisphosphate aldolase (Mycobacterium tuberculosis, UniProt P9WQA3); test: Fluorescence-based biochemical high throughput dose response assay for inhibitors of the fructose-bisphosphate aldolase (FBA) of M. tuberculosis.; type: functional
Sequence of Fructose-bisphosphate aldolase (P9WQA3 whole entry): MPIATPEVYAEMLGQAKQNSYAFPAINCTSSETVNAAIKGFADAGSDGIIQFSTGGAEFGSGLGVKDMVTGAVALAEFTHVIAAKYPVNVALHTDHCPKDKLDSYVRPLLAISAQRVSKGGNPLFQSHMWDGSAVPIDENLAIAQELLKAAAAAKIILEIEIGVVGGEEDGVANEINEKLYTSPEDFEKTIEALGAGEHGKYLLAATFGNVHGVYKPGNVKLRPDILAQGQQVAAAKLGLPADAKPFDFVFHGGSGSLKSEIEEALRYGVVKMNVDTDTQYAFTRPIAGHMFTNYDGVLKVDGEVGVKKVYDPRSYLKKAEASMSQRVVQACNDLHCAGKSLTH

[22] = target: Voltage-gated inwardly rectifying potassium channel KCNH2 (Homo sapiens, UniProt Q12809); test: concentration-dependent hERG rescue from blockers – cell-based, thallium flux, dose response (AID 2121); type: ADME
Sequence of Voltage-gated inwardly rectifying potassium channel KCNH2 (Q12809 whole entry): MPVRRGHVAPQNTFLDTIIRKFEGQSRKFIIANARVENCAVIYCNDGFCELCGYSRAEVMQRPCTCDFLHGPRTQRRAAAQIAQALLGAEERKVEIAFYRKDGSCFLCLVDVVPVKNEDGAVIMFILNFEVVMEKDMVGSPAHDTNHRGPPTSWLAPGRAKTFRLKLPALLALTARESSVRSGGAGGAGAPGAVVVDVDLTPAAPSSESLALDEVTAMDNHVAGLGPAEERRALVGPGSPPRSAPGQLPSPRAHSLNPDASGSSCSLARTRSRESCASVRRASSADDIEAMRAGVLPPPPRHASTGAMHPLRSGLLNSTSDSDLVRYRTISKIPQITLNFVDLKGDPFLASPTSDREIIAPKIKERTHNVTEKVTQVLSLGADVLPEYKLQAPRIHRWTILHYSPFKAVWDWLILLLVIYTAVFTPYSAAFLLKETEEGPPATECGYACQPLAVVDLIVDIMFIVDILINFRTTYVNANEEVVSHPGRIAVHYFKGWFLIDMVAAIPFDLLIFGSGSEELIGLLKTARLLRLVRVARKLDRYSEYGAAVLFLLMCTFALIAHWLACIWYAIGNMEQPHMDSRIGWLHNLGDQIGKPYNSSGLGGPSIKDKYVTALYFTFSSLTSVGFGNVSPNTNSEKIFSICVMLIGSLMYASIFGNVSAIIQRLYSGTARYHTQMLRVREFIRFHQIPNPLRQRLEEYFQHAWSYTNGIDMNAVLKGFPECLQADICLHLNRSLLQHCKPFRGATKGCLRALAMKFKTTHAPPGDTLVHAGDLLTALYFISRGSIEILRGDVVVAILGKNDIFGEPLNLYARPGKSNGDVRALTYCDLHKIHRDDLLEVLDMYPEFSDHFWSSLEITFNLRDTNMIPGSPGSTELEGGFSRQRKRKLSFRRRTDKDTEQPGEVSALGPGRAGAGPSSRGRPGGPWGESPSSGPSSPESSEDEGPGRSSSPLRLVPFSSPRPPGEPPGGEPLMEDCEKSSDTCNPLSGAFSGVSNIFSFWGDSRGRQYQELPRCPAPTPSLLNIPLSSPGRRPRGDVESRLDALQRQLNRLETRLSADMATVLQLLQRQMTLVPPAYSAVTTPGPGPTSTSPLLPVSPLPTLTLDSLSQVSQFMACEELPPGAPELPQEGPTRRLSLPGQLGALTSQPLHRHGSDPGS

[23] = target: T9, Streptokinase A (Streptococcus pyogenes serotype M1, UniProt P10520); test: viability-normalized secreted streptokinase activity reduction – plasminogen activation absorbance, OD405, dose response (AID 1914); type: functional, Streptococcus pyogenes M1 GAS;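 note: secreted streptokinase activity via plasminogen activation per viability signal from cell pellet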
T9 sequence (P10520 whole entry): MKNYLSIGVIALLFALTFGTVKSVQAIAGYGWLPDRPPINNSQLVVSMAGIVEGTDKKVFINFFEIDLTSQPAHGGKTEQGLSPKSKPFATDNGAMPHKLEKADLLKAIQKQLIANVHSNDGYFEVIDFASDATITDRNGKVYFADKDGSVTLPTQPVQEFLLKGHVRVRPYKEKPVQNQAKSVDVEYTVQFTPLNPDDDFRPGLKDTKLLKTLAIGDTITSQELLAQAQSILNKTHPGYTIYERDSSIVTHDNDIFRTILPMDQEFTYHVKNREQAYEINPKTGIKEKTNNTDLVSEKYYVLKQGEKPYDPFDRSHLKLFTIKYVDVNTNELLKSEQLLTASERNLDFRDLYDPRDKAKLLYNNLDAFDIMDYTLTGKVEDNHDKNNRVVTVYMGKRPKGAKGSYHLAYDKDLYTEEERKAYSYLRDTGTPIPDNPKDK

[24] = test system: Streptococcus; test: GAS UMAA2166 growth inhibition – luminescence, BacTiterGlo, counter-screen for streptokinase expression inhibitor project, dose response (AID 1915); type: functional, organism-based; conditions: read-out: EC50;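 note: potency for reduction of bacterial viability or growth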
[25] = test system: Streptococcus sp. 'group A'; test: Streptococcus pyogenes SK(-)GAS viability under kanamycin – luminescence, BacTiterGlo, confirmation, counter-screen for streptokinase expression inhibitor project, dose response (AID 1900); type: functional, organism-based
[26] = target: T10, Probable nicotinate-nucleotide adenylyltransferase (Staphylococcus aureus (strain N315), UniProt P65502); type: functional, Staphylococcus aureus subsp. aureus N315; conditions: read-out: IC50_Mean;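 for IC50 Mean: confirmatory dose-response retesting of NadD inhibitor hits first found in an ultra-high-throughput screen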
T10 sequence (P65502 whole entry): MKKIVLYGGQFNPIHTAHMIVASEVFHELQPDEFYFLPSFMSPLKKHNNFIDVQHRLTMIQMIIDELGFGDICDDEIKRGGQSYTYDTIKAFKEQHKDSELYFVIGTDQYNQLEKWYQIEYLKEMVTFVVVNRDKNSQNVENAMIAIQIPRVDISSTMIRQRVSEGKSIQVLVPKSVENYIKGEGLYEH

[27] = target: Albumin (Bos taurus, UniProt P02769); test: Counterscreen for inhibitors of T-cell receptor (TCR)-CD3 interaction: Fluorescence-based biochemical high throughput dose response assay to identify inhibitors of T-cell receptor (TCR)-CD3 interaction using a TAMRA-labeled BSA probe.; type: functional
[28] = NIH3T3 cell viability loss – ATP luminescence, mouse fibroblasts, counter-screen, dose response (AID 2010); type: functional, cell-based;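 note: cells exposed to compound for about 90 hours before reading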
[29] = target: T10, Probable nicotinate-nucleotide adenylyltransferase; type: functional, Staphylococcus aureus subsp. aureus N315
[30] = viability of uninfected HEp-2 cells – cell-based, HTS, cytotoxicity control for RSV inhibitor project, dose response (AID 2410); type: functional; conditions: human respiratory syncytial virus
[31] = Trypanosoma cruzi growth suppression in host cells – NIH3T3 host cells, beta-gal luminescence, confirmation (AID 2044); type: functional, cell-based;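 note: intracellular parasites grown in NIH/3T3 mouse fibroblasts as host cells; luminescent beta-galactosidase reporter signal from transgenic T. cruzi replicating inside host cells; inhibitors lower the luminescence signal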

Sequence of Beta-lactamase (Salmonella choleraesuis (strain SC-B67), UniProt Q5J463) (Q5J463 whole entry): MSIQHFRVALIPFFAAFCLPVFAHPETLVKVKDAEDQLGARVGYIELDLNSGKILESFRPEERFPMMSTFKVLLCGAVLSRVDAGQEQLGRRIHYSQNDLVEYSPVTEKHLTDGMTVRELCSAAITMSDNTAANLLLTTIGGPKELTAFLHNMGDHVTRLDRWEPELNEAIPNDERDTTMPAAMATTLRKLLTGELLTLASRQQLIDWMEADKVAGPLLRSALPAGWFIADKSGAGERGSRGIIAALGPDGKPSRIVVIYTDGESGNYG

Cc1ccc(-c2nnc(S)n2-c2ccccc2)cc1
IC50 [1]: > 59.6 µM (inactive)
IC50 [2]: > 59.6 µM (inactive)
IC50 [3]: > 59.6 µM (inactive)

Cc1ccc(-c2nc3ncccn3c2NC2CCCCC2)o1
IC50 [4]: 8.98 µM (active)
IC50 [5]: 25.9 µM (active)
IC50 [6]: 19.7 µM (active)

CCCCN(CC)CCNC(=O)c1cc2c(O)nc3ccc(C)cc3c2s1
AC50 [7]: 23.1 µM (active)
AC50 [8]: 100 µM (inactive)

Cc1ccc(CNC(=O)C2CCN(S(=O)(=O)c3ccc(Br)s3)CC2)cc1
IC50 [9]: > 80 µM (inactive)

Nc1cccc2[nH]c(C(F)(F)F)nc12
IC50 [10]: 29.8 µM (inactive)
IC50 [11]: 80.8 µM (active)
IC50 [12]: 26.8 µM (inactive)
IC50 [13]: 37 µM (inactive)
IC50 [14]: 10.4 µM (active)

O=C(NNC(=O)c1ccc2ccccc2c1)c1ccc(Cl)cc1
IC50 [15]: 20 µM (inactive)
IC50 [16]: 54.1 µM (inactive)
IC50 [17]: > 80 µM (inactive)

Cc1ccc(S(=O)(=O)Nc2ccc3c(c2)CC(=O)N([C@H](C)CO)C[C@@H](C)[C@@H](CN(C)S(=O)(=O)c2ccc(Cl)cc2)O3)cc1
AC50 [18]: 33.1 µM (active)
AC50 [19]: 1.96 µM (active)

Cc1ccc(NC(=O)c2cc(-c3cc(Cl)ccc3C)[nH]n2)cc1NS(C)(=O)=O
AC50 [20]: 23.8 µM (active)

Sc1nc(-c2ccccc2)cn1/N=C/c1cccc2ccccc12
IC50 [21]: > 9.99 µM (inactive)
EC50 [22]: 0.7 µM (active)
EC50 [23]: > 150 µM (not active)
EC50 [24]: > 150 µM (not active)
EC50 [25]: 89.1 µM (active)

COCCn1/c(=N/C(=O)c2cc(-c3cccs3)nc3ccccc23)sc2cc(S(N)(=O)=O)ccc21
IC50 [26]: 23.8 µM (active)
IC50 [27]: > 94.1 µM (inactive)
EC50 [28]: > 60 µM (not active)
IC50 [29]: 12.4 µM (active)
CC50 [30]: > 50 µM (active)
EC50 [31]: 2.47 µM (active)
